Values quoted from earlier work, collected in patent publication US20160228670A1, “SYSTEM FOR NITRIC OXIDE INHALATION” (ADVANCED […] (AIT) LTD., priority 2013, published 2016).
Where two headings read alike, the source gives them in different places.

[N]=O [NO, nitric oxide]
t1/2 of NO to NO2 (NO concentration in air 1 ppm): 3500 min
t1/2 of NO to NO2 (NO concentration in air 10 ppm): 350 min
t1/2 of NO to NO2 (NO concentration in air 100 ppm): 35 min
t1/2 of NO to NO2 (NO concentration in air 1,000 ppm): 3.5 min
t1/2 of NO to NO2 (NO concentration in air 10,000 ppm): 0.35 min
t1/2 of NO to NO2 (NO concentration in air 20,000 ppm): 0.175 min
